In patent US9447028B2, “Therapeutic aryl-amido-aryl compounds and their use” (King's College London, priority 2009, dated 2016):

How the values were obtained:
Format in all cases: cell-based
[1] = biological target: T1, RARα (Homo sapiens, UniProt P10276); assay: Transactivation assay for RAR alpha (gal4-RAR fusion, luciferase reporter, COS-7 cells); conditions: for RARα/RARβ ratio (*): fold-selectivity for RARα over RARβ; for RARα activity ratio: ratio of test compound EC50 to that of atRA on the same plate
T1 construct: gal4 (fusion partner); expressed in transfected cells; host or cells: COS-7
T1 sequence (P10276 183-417 limits assumed): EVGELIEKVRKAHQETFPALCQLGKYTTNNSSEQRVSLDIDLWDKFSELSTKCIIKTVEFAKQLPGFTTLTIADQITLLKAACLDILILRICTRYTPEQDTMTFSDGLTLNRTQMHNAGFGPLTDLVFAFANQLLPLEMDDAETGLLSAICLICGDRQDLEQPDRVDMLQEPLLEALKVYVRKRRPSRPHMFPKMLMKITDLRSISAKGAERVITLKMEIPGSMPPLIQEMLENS
Method: (§1) Transcriptional transactivation assays were performed with gal4 fusion receptor constructs, created using each of the RAR ligand binding domains, co-transfected with the pFR-luc (Stratagene™) reporter construct in COS-7 cells.
(§2) Briefly, on day 1, 96 well plates were seeded with 8000 cells per well then left to recover overnight. On day 2, the cells were co-transfected with 100 ng of reporter plasmid and 10 ng of the appropriate receptor plasmid per well using lipofectamine (Invitrogen™). On day 3, the lipofectamine containing media was replaced by a DMEM without phenol red, followed by the addition of test compound dissolved in 1 μL of DMSO to each well's 100 μL total volume. Finally, on day 4, the cells were lysed and their luciferase substrate was provided by the BrightGlo™ reagent (Promega™), the plates were then read on the MicroBeta TriLux™ (Perkin Elmer™).
(§3) Where replicate data has been generated, the data are quoted as a ratio of the mean EC50 from the separate experiments.

[2] = biological target: T2, RARβ (Homo sapiens, UniProt P10826); assay: Transactivation assay for RAR beta (gal4-RAR fusion, luciferase reporter, COS-7 cells); conditions: ratio of test compound EC50 to that of atRA; inactive = no agonist action at the highest concentration tested
T2 construct: gal4 (fusion partner); expressed in transfected cells; host or cells: COS-7
T2 sequence (P10826 183-417 limits assumed): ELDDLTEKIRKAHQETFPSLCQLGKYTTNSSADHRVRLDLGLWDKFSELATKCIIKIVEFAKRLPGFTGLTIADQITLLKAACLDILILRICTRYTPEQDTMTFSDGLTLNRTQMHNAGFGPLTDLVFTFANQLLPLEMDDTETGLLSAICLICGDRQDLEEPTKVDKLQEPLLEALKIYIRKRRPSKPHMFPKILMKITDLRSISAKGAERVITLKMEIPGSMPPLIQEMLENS
Method: as §1, §2, §3

[3] = biological target: T3, RARγ (Homo sapiens, UniProt P13631); assay: Transactivation assay for RAR gamma (gal4-RAR fusion, luciferase reporter, COS-7 cells); conditions: ratio of test compound EC50 to that of atRA; inactive = no agonist action at the highest concentration tested
T3 construct: gal4 (fusion partner); expressed in transfected cells; host or cells: COS-7
T3 sequence (P13631 185-419 limits assumed): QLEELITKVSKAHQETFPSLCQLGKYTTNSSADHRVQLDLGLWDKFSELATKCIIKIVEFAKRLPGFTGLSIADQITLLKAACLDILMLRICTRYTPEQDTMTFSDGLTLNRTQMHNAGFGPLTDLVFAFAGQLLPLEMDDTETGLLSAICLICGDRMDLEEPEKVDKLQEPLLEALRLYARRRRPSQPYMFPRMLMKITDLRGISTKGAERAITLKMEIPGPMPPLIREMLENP
Method: as §1, §2, §3

Row | Structure (SMILES) | RARα/RARβ ratio (*) [1] | RARα activity ratio [1] | RARβ activity ratio [2] | RARγ activity ratio [3]
1 | O=C(O)c1ccc(NC(=O)c2cc(Cl)c(OC3CCCC3)c(C(F)(F)F)c2)cc1 [AAA-043, 4-(3-Chloro-4-(cyclopentyloxy)-5-(trifluoromethyl)benzamido)benzoic acid] | 27 | 2 | 53 | 688
2 | O=C(O)c1ccc(NC(=O)c2cc(Cl)c(OC3CCCC3)c(OC3CCCC3)c2)cc1 [AAA-044, 4-(3-Chloro-4,5-bis(cyclopentyloxy)benzamido)benzoic acid] | 32 | 1.7 | 55 | 571
3 | O=C(O)c1ccc(NC(=O)c2cc(Cl)c(OCc3ccccc3)c(OCc3ccccc3)c2)cc1 [AAA-045, 4-(3,4-bis(benzyloxy)-5-chlorobenzamido)benzoic acid] | 39 | 7.3 | 283 | 3651
4 | Cc1cc(NC(=O)c2cc(Cl)c(OC3CCCC3)c(OC3CCCC3)c2)ccc1C(=O)O [AAA-046, 4-(3-Chloro-4,5-bis(cyclopentyloxy)benzamido)-2-methylbenzoic acid] | 43 | 2.8 | 121 | 698
5 | O=C(O)c1ccc(NC(=O)c2cc(Cl)c(OC3CCCCC3)c(OC3CCCCC3)c2)cc1 [AAA-047, 4-(3-Chloro-4,5-bis(cyclohexyloxy)benzamido)benzoic acid] | 2 | 11 | 22 | 270
6 | CC(C)(C)Oc1cc(C(=O)Nc2ccc(C(=O)O)cc2)cc(Cl)c1OC(C)(C)C [AAA-048, 4-(3,4-Di-tert-butoxy-5-chlorobenzamido)benzoic acid] | 44 | 0.86 | 38 | 162
7 | Cc1cc(NC(=O)c2cc(Cl)c(OC(C)(C)C)c(OC(C)(C)C)c2)ccc1C(=O)O [AAA-049, 4-(3,4-Di-tert-butoxy-5-chlorobenzamido)-2-methylbenzoic acid] | 13200 | 0.64 | 8460 | 82
8 | Cc1cc(NC(=O)c2cc(Cl)c(OC(C)C)c(OC(C)C)c2)ccc1C(=O)O [AAA-051, 4-(3-Chloro-4,5-diisopropoxybenzamido)-2-methylbenzoic acid] | 45 | 0.97 | 43 | 2859
9 | Cc1cc(NC(=O)c2cc(Br)c(OC(C)C)c(Br)c2)ccc1C(=O)O [AAA-052, 4-(3,5-Dibromo-4-isopropoxybenzamido)-2-methylbenzoic acid] | 84 | 0.25 | 21 | 1923
10 | CCOc1c(Br)cc(C(=O)Nc2ccc(C(=O)O)c(C)c2)cc1Br [AAA-053, 4-(3,5-Dibromo-4-ethoxybenzamido)-2-methylbenzoic acid] | 336 | 4.2 | 1410 | 414
11 | Cc1cc(NC(=O)c2cc(Cl)c(OC3CCCC3)c(Cl)c2)ccc1C(=O)O [AAA-054, 4-(3,5-Dichloro-4-(cyclopentyloxy)benzamido)-2-methylbenzoic acid] | 36 | 0.59 | 21 | 51
12 | COc1c(Cl)cc(C(=O)Nc2ccc(C(=O)O)c(C)c2)cc1Cl [AAA-055, 4-(3,5-Dichloro-4-methoxybenzamido)-2-methylbenzoic acid] | 107 | 18 | 1926 | 69000
13 | Cc1cc(NC(=O)c2cc(Cl)c(OC(C)(C)C)c(Cl)c2)ccc1C(=O)O [AAA-056, 4-(4-tert-Butoxy-3,5-dichlorobenzamido)-2-methylbenzoic acid] | >250 | 3.1 | >770 | 22
14 | CCOc1c(Cl)cc(C(=O)Nc2ccc(C(=O)O)c(O)c2)cc1Cl [AAA-057, 4-(3,5-Dichloro-4-ethoxybenzamido)-2-hydroxybenzoic acid] | 37 | 33 | 1226 | 4920
15 | CCOc1c(OC2CCCC2)cc(C(=O)Nc2ccc(C(=O)O)cc2)cc1OC1CCCC1 [AAA-058, 4-(3,5-Bis(cyclopentyloxy)-4-ethoxybenzamido)benzoic acid] | 145 | 29 | 4200 | 550
16 | CC(C)Oc1cc(C(=O)Nc2ccc(C(=O)O)cc2)cc(OC(C)C)c1OC(C)C [AAA-059, 4-(3,4,5-Triisopropoxybenzamido)benzoic acid] | 96 | 27 | 2600 | 225
17 | CC(C)(C)Oc1cc(C(=O)Nc2ccc(C(=O)O)cc2)cc(OC(C)(C)C)c1OC(C)(C)C [AAA-060, 4-(3,4,5-Tri-tert-butoxybenzamido)benzoic acid] | 50 | 45 | 2267 | 30
18 | CCOc1c(OC(C)C)cc(C(=O)Nc2ccc(C(=O)O)c(C)c2)cc1OC(C)C [AAA-061, 4-(4-Ethoxy-3,5-diisopropoxybenzamido)-2-methylbenzoic acid] | 118 | 44 | 5200 | 1531

Next, values leading:

Row | RARα/RARβ ratio (*) [1] | RARα activity ratio [1] | RARβ activity ratio [2] | RARγ activity ratio [3] | Structure (SMILES)
19 | 8 | 85 | 714 | 5328 | COc1c(OC(C)C)cc(C(=O)Nc2ccc(C(=O)O)cc2)cc1OC(C)C [AAA-062, 4-(3,5-Diisopropoxy-4-methoxybenzamido)benzoic acid]
20 | 22 | 76 | 1686 | 6429 | COc1c(OC(C)C)cc(C(=O)Nc2ccc(C(=O)O)c(C)c2)cc1OC(C)C [AAA-063, 4-(3,5-Diisopropoxy-4-methoxybenzamido)-2-methylbenzoic acid]
21 | >40 | 81 | >3500 | 1977 | CCOc1c(OC(C)C)cc(C(=O)Nc2ccc(C(=O)O)c(F)c2)cc1OC(C)C [AAA-064, 4-(3,5-Diisopropoxy-4-ethoxybenzamido)-2-fluorobenzoic acid]
22 | 9 | 15 | 140 | 3521 | COc1c(Cl)cc(C(=O)Nc2ccc(C(=O)O)cn2)cc1C(F)(F)F [AAA-065, 6-(3-Chloro-4-methoxy-5-(trifluoromethyl)benzamido)nicotinic acid]
23 | 6 | 50 | 279 | 6047 | COc1c(Cl)cc(C(=O)Nc2ccc(C(=O)O)cc2F)cc1C(F)(F)F [AAA-067, 4-(3-Chloro-4-methoxy-5-(trifluoromethyl)benzamido)-3-fluorobenzoic acid]
24 | 140 | 7 | 976 | 60833 | CCOc1c(Cl)cc(C(=O)Nc2ccc(C(=O)O)c(F)c2)cc1C(F)(F)F [AAA-068, 4-(3-Chloro-4-ethoxy-5-(trifluoromethyl)benzamido)-2-fluorobenzoic acid]
25 | 421 | 1.2 | 505 | 3380 | CC(C)Oc1c(Cl)cc(C(=O)Nc2ccc(C(=O)O)c(F)c2)cc1C(F)(F)F [AAA-069, 4-(3-Chloro-4-isopropoxy-5-(trifluoromethyl)benzamido)-2-fluorobenzoic acid]
26 | 701 | 3.4 | 2386 | >62500 | COc1c(Cl)cc(C(=O)Nc2ccc(C(=O)O)c(O)c2)cc1C(F)(F)F [AAA-070, 4-(3-Chloro-4-methoxy-5-(trifluoromethyl)benzamido)-2-hydroxybenzoic acid]
